Key:
Format in all cases: in vivo
Conditions in all cases: 1000 g/ha, evaluated after 13 days
Avena fatua (AVEFA) [1] = test: Pre-emergence herbicidal activity, Avena fatua; design: key: 5=total damage to plant; 0=no damage to plant
Description: (§1) Seeds of a variety of test species were sown in standard soil in pots: Triticum aestivium (TRZAW), Avena fatua (AVEFA), Alopecurus myosuroides (ALOMY), Echinochloa crus-galli (ECHCG), Lolium perenne (LOLPE), Zea Mays (ZEAMX), Abutilon theophrasti (ABUTH), Amaranthus retroflexus (AMARE) and Setaria faberi (SETFA). After cultivation for one day (pre-emergence) under controlled conditions in a glasshouse (at 24/16° C., day/night; 14 hours light; 65% humidity), the plants were sprayed with an aqueous spray solution derived from the formulation of the technical active ingredient in acetone/water (50:50) solution containing 0.5% Tween 20 (polyoxyethelyene sorbitan monolaurate, CAS RN 9005-64-5). The test plants were then grown in a glasshouse under controlled conditions (at 24/16°, day/night; 14 hours light; 65% humidity) and watered twice daily. After 13 days, the test was evaluated (5=total damage to plant; 0=no damage to plant).

[2] = system: Triticum aestivium (TRZAW); test: Pre-emergence herbicidal activity, Triticum aestivium; design: key: 5=total damage to plant; 0=no damage to plant
Description: as §1

[3] = system: Triticum aestivium (TRZAW); test: Post-emergence herbicidal activity, Triticum aestivium; design: key: 5=total damage to plant; 0=no damage to plant
Description: (§2) Seeds of a variety of test species were sown in standard soil in pots: Triticum aestivium (TRZAW), Avena fatua (AVEFA), Alopecurus myosuroides (ALOMY), Echinochloa crus-galli (ECHCG), Lolium perenne (LOLPE), Zea Mays (ZEAMX), Abutilon theophrasti (ABUTH), Amaranthus retroflexus (AMARE) and Setaria faberi (SETFA). After 8 days cultivation (post-emergence) under controlled conditions in a glasshouse (at 24/16° C., day/night; 14 hours light; 65% humidity), the plants were sprayed with an aqueous spray solution derived from the formulation of the technical active ingredient in acetone/water (50:50) solution containing 0.5% Tween 20 (polyoxyethelyene sorbitan monolaurate, CAS RN 9005-64-5). The test plants were then grown in a glasshouse under controlled conditions (at 24/16° C., day/night; 14 hours light; 65% humidity) and watered twice daily. After 13 days, the test was evaluated (5=total damage to plant; 0=no damage to plant).

Avena fatua (AVEFA) [4] = test: Post-emergence herbicidal activity, Avena fatua
Description: as §2

Lolium perenne (LOLPE) [5] = test: Pre-emergence herbicidal activity, Lolium perenne; design: key: 5=total damage to plant; 0=no damage to plant
Description: as §1

[6] = system: Echinochloa crus-galli (ECHCG); test: Pre-emergence herbicidal activity, Echinochloa crus-galli; design: key: 5=total damage to plant; 0=no damage to plant
Description: as §1

Setaria faberi (SETFA) [7] = test: Post-emergence herbicidal activity, Setaria faberi; design: key: 5=total damage to plant; 0=no damage to plant
Description: as §2

Lolium perenne (LOLPE) [8] = test: Post-emergence herbicidal activity, Lolium perenne
Description: as §2

[9] = system: Echinochloa crus-galli (ECHCG); test: Post-emergence herbicidal activity, Echinochloa crus-galli; design: key: 5=total damage to plant; 0=no damage to plant
Description: as §2

[10] = system: Alopecurus myosuroides (ALOMY); test: Pre-emergence herbicidal activity, Alopecurus myosuroides; design: key: 5=total damage to plant; 0=no damage to plant
Description: as §1

[11] = system: Alopecurus myosuroides (ALOMY); test: Post-emergence herbicidal activity, Alopecurus myosuroides; design: key: 5=total damage to plant; 0=no damage to plant
Description: as §2

Setaria faberi (SETFA) [12] = test: Pre-emergence herbicidal activity, Setaria faberi; design: key: 5=total damage to plant; 0=no damage to plant
Description: as §1

Row | Structure (SMILES) | Control of AVEFA after pre-emergence application (score 0-5) (Avena fatua (AVEFA) [1]) | Control of TRAZW after pre-emergence application (score 0-5) [2] | Control of TRAZW after post-emergence application (score 0-5) [3] | Control of AVEFA after post-emergence application (score 0-5) (Avena fatua (AVEFA) [4]) | Control of LOLPE after pre-emergence application (score 0-5) (Lolium perenne (LOLPE) [5]) | Control of ECHCG after pre-emergence application (score 0-5) [6] | Control of SETFA after post-emergence application (score 0-5) (Setaria faberi (SETFA) [7]) | Control of LOLPE after post-emergence application (score 0-5) (Lolium perenne (LOLPE) [8]) | Control of ECHCG after post-emergence application (score 0-5) [9] | Control of ALOMY after pre-emergence application (score 0-5) [10] | Control of ALOMY after post-emergence application (score 0-5) [11] | Control of SETFA after pre-emergence application (score 0-5) (Setaria faberi (SETFA) [12])
1 | CC(C)(C)OC(=O)Nc1ccc(-c2cncc(C(F)F)c2)nc1C(F)(F)F [Compound B5] | 0 | 0 | 0 | 1 | 0 | 2 | 4 | 1 | 3 | 0 | 1 | 4
2 | CC(C)(C)OC(=O)Nc1ccc(-c2cncc(Cl)c2)nc1C(F)(F)F [Compound B6] | 2 | 0 | 1 | 3 | 1 | 3 | 5 | 4 | 4 | 1 | 1 | 5
3 | CC(C)(C)OC(=O)Nc1ccc(-c2cncc(C#N)c2)nc1C(F)(F)F [Compound B7] | 1 | 0 | 1 | 4 | 1 | 2 | 5 | 2 | 4 | 0 | 1 | 5
4 | C=CCN(C(=O)OC(C)(C)C)c1ccc(-c2cncc(F)c2)nc1C(F)(F)F [Compound B9] | 2 | 0 | 1 | 3 | 2 | 3 | 5 | 4 | 5 | 1 | 1 | 5
5 | CC(C)(C)OC(=O)N(CC1CC1)c1ccc(-c2cncc(F)c2)nc1C(F)(F)F [Compound B10] | 2 | 0 | 1 | 3 | 1 | 3 | 5 | 3 | 4 | 1 | 1 | 5
6 | COC(=O)CN(C(=O)OC(C)(C)C)c1ccc(-c2cncc(F)c2)nc1C(F)(F)F [Compound B11] | 0 | 0 | 0 | 1 | 0 | 0 | 3 | 1 | 2 | 0 | 0 | 1
7 | CSc1cncc(-c2ccc(NC(=O)OC(C)(C)C)c(C)n2)c1 [Compound B12] | 1 | 0 | 1 | 2 | 1 | 1 | 3 | 2 | 2 | 1 | 1 | 3
8 | CC#Cc1cncc(-c2ccc(NC(=O)OC(C)(C)C)c(C)n2)c1 [Compound B33] | 2 | 0 | 2 | 4 | 1 | 2 | 5 | 3 | 2 | 0 | 2 | 4
9 | CC(C)(C)OC(=O)Nc1ccc(-c2cncc(F)c2)nc1C#N [Compound B34, tert-butyl N-[2-cyano-6-(5-fluoro-3-pyridyl)-3-pyridyl]carbamate] | 0 | 0 | 1 | 2 | 1 | 4 | 4 | 1 | 5 | 0 | 0 | 5

From patent US20210127673A1, “HERBICIDES” (SYNGENTA PARTICIPATIONS AG, priority 2016, published 2021)
